Where “and” joins values, the source holds several entries; their conditions need not be identical. Identical values can stand only once.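 Dose response: 5 concentrations. Exposure: 48 h. Format: 96-well plates. Endpoint: linear interpolation; highest concentration if not reached. At the GI50, growth is halved. TGI denotes the concentration required for complete inhibition of growth.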
Tests used:
Experiment in all cases: NCI-60 cell line screen, 48 h
HOP-62 NSCLC = tested on: HOP-62 NSCLC
HCT-15 colon = tested on: HCT-15 colon
NCI-H226 lung = tested on: NCI-H226 lung
UACC-257 melanoma = tested on: UACC-257 melanoma
K-562 leukemia = tested on: K-562 leukemia
SK-MEL-2 melanoma = tested on: SK-MEL-2 melanoma
786-0 renal = tested on: 786-0 renal
KM12 colon = tested on: KM12 colon
NCI/ADR-RES ovarian = tested on: NCI/ADR-RES ovarian
CAKI-1 renal = tested on: CAKI-1 renal
MDA-N = tested on: MDA-N

SMILES | TGI (HOP-62 NSCLC) | TGI (HCT-15 colon) | TGI (NCI-H226 lung) | TGI (UACC-257 melanoma) | TGI (K-562 leukemia) | TGI (SK-MEL-2 melanoma) | TGI (786-0 renal) | TGI (KM12 colon) | TGI (NCI/ADR-RES ovarian) | TGI (CAKI-1 renal) | TGI (MDA-N) | GI50 (HOP-62 NSCLC) | GI50 (HCT-15 colon) | GI50 (NCI-H226 lung) | GI50 (UACC-257 melanoma) | GI50 (K-562 leukemia) | GI50 (SK-MEL-2 melanoma) | GI50 (KM12 colon) | GI50 (NCI/ADR-RES ovarian) | GI50 (CAKI-1 renal)
CC(=O)NC1=C(NCc2ccc(Cl)cc2)C(=O)c2ccccc2C1=O | > 50 µM | 11.6 µM | 26.1 µM | 12.4 µM | 16.7 µM | 12.2 µM | 15.7 µM | > 50 µM | – | – | – | – | – | – | – | – | – | – | – | –
CC(C)C1=CC23CCC4C(C)(C(=O)O)CCCC4(C)C2CC1C(C(=O)O)C3C(=O)O (stereo not drawn) | > 100 µM | > 100 µM | > 100 µM | – | > 100 µM | > 100 µM | > 100 µM | > 100 µM | > 100 µM | > 100 µM | – | – | – | – | – | – | – | – | – | –
COC1/C=C/C(C)C(C(C)C(OC)C(C)CCC(=O)C(C)C(C/C=C/N(C)C=O)OC)OC(=O)/C=C/C=C(\C)CC(OC)C(OC)C2=CC(=O)O[C@@H](C(C)C(OC)CC(OC)/C=C/C(C)C(O)C1)[C@H]2O (stereo partly drawn) | 0.218 µM | 0.329 µM | 0.244 µM | 0.338 µM | > 100 µM | 0.388 µM | 0.434 µM | 3.02 µM | 0.766 µM | – | – | – | – | – | – | – | – | – | – | –
c1ccc(Nc2nnc(-c3nsc4ccccc34)o2)cc1 | > 100 µM | > 100 µM | – | > 100 µM | > 100 µM | > 100 µM | – | > 100 µM | – | – | – | – | – | – | – | – | – | – | – | –
COc1ccc(C(O)/C(=C/n2ccnc2)c2ccccc2)cc1OC (stereo not drawn) | > 100 µM | > 100 µM | > 100 µM | > 100 µM | > 100 µM | > 100 µM | > 100 µM | > 100 µM | – | – | – | – | – | – | – | – | – | – | – | –
COc1cc(/C=C/C(=O)OC[C@H](Br)[C@H](OC(C)=O)c2ccc3c(c2)OCO3)cc(OC)c1OC | > 100 µM | > 100 µM | > 100 µM | > 100 µM | > 100 µM | > 100 µM | > 100 µM | > 100 µM | > 100 µM | > 100 µM | – | – | – | – | – | – | – | – | – | –
COc1ccc(C2=CN3CCC[C@H]3C=C2c2cc(O)c(OC)c(OC)c2)cc1OC | 0.122 µM and 0.148 µM | – | 0.0294 µM | 0.0899 µM | 0.244 µM and 0.173 µM | 0.0161 µM | – | 0.0394 µM | – | 0.0522 µM | 0.104 µM | – | – | – | – | – | – | – | – | –
CCCCCCOc1ccc(NC2=C(Cl)C(=O)c3ncccc3C2=O)cc1 | 3.88 µM | 4.64 µM | > 10 µM | 4.54 µM | > 10 µM | – | 5.75 µM | 3.14 µM | – | – | 2.97 µM | – | – | – | – | – | – | – | – | –
COC(=O)CCN(CCC(=O)OC)C1CC1 | > 100 µM | > 100 µM | > 100 µM | > 100 µM | > 100 µM | – | > 100 µM | > 100 µM | > 100 µM | – | – | – | – | – | – | – | – | – | – | –
CC(=O)Nc1ccc(-c2nnc(SCC(=O)Nc3ccccc3C)o2)cc1 | > 100 µM | > 100 µM | > 100 µM | > 100 µM | > 100 µM | > 100 µM | > 100 µM | > 100 µM | – | – | – | – | – | – | – | – | – | – | – | –
COc1ccc2c(c1)CC[C@@H]1[C@@H]2CC[C@]2(C)C(=O)/C(=C/c3cc(OC)c(OC)c(OC)c3)C[C@@H]12 | 30.7 µM | > 100 µM | – | – | – | 41.6 µM | 39 µM | 82.9 µM | 34.6 µM | 63.3 µM | – | – | – | – | – | – | – | – | – | –
COc1nc2[nH]ccc2c(=O)n1C | – | > 100 µM | – | > 100 µM | > 100 µM | > 100 µM | – | > 100 µM | – | 57.6 µM | – | – | – | – | – | – | – | – | – | –
Clc1ncnc2c1ncn2CCCCCCCCCCCCn1cnc2c(Cl)ncnc21 | 33 µM | 25.8 µM | 24.5 µM | 11.9 µM | 17.4 µM | 26.4 µM | 71.8 µM | 28.9 µM | – | 7.68 µM | – | – | – | – | – | – | – | – | – | –
CC(C)CCC[C@@H](C)[C@H]1CCC2C3=CCC4C(=O)C=CC(=O)C4C3CC[C@@]21C (stereo partly drawn) | > 100 µM | > 100 µM | > 100 µM | – | > 100 µM | – | – | > 100 µM | – | – | – | 0.552 µM | 0.235 µM | 0.849 µM | 0.372 µM | 0.139 µM | 1.14 µM | 0.338 µM | – | –
O=C(Nc1cccc(-n2ccc3c(NC(=O)c4ccccc4)nccc32)c1)c1cc(N2CCOCC2)cc(C(F)(F)F)c1 | > 100 µM | – | – | > 100 µM | > 100 µM | 3.82 µM | – | – | > 100 µM | – | – | 0.168 µM | 0.0395 µM | 0.36 µM | 0.109 µM | 0.0506 µM | 0.167 µM | 0.0628 µM | 0.09 µM | 0.0641 µM
Cc1cccc2c1C/C(=C\c1cccc(C)c1C(=O)O)C2=O | > 100 µM | > 100 µM | > 100 µM | > 100 µM | > 100 µM | > 100 µM | > 100 µM | > 100 µM | > 100 µM | > 100 µM | – | – | – | – | – | – | – | – | – | –
Cc1cc([N+](=O)[O-])ccc1N=NC(=O)NNc1ccc([N+](=O)[O-])cc1C | 29 µM | 50.2 µM | 31.5 µM | 39.4 µM | 39.9 µM | 43.6 µM | 30.6 µM | – | – | 29.3 µM | 29.9 µM | – | – | – | – | – | – | – | – | –
OCC(O)C(O)C(O)C(/C=N\Nc1ncnc2ccc(Br)cc12)=N/Nc1ncnc2ccc(Br)cc12 (stereo not drawn) | > 100 µM | – | > 100 µM | > 100 µM | > 100 µM | > 100 µM | > 100 µM | > 100 µM | – | > 100 µM | > 100 µM | – | – | – | – | – | – | – | – | –

Reference: PubChem BioAssay (NCI)
